Experimental findings from patent US20110086759A1, “CHEMICAL COMPOUNDS” (SYNGENTA CROP PROTECTION, INC., priority 2007, published 2011) are described below.

What all share (type): in vivo
For experiment [1], the system named is Echinochloa crus-galli (ECHCG). Kind of experiment: Pre-emergence biological efficacy, glasshouse pot test. To be noted: 312 h, evaluated after 13 days (100=total damage; 0=no damage), read-out: Percentage damage ECHCG; for pest or weed control at 1000 g/ha: pre-emergence, 1,000 g/ha. Put shortly: (§1)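 Compound was applied as a spray one day after sowing, at a final dose of 1000 or 250 g/ha. Plants grew under 14 h light, 24/16 °C and 65% humidity, and injury was assessed on day 13 on a 0–100 scale.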

Experiment [2] deals with Amaranthus retoflexus (AMARE). The experiment is described as above. The following applies: Amaranthus retroflexus, 312 h, evaluated after 13 days (100=total damage; 0=no damage), read-out: Percentage damage AMARE; for pest or weed control at 1000 g/ha: pre-emergence, 1,000 g/ha. The method in brief: as §1
Experiment [3] has as its system Setaria faberi (SETFA). The experiment is described as above. To be noted: 312 h, evaluated after 13 days (100=total damage; 0=no damage), read-out: Percentage damage SETFA; for pest or weed control at 1000 g/ha: pre-emergence, 1,000 g/ha. The method in brief: as §1
Experiment [4] concerns Solanum nigrum (SOLNI). Described as above. To be noted: 312 h, evaluated after 13 days (100=total damage; 0=no damage), read-out: Percentage damage SOLNI; for pest or weed control at 1000 g/ha: pre-emergence, 1,000 g/ha. Put shortly:
as §1

For experiment [5], the system named is Ipomea hederaceae (IPOHE). Described as above. To be noted: Ipomoea hederacea, 312 h, evaluated after 13 days (100=total damage; 0=no damage), read-out: Percentage damage IPOHE; for pest or weed control at 1000 g/ha: pre-emergence, 1,000 g/ha. Put shortly:
as §1

The test system of experiment [6] is Alopecurus myosuroides (ALOMY). The experiment is described as above. To be noted: 312 h, evaluated after 13 days (100=total damage; 0=no damage), read-out: Percentage damage ALOMY; for pest or weed control at 1000 g/ha: pre-emergence, 1,000 g/ha. Put shortly:
as §1

The test system of experiment [7] is Echinochloa crus-galli (ECHCG). As to the kind of experiment: Post-emergence biological efficacy, glasshouse pot test. To be noted: 312 h, evaluated after 13 days (100=total damage; 0=no damage), read-out: Percentage damage caused to weed species, ECHCG; for pest or weed control at 1000 g/ha: post-emergence, 1,000 g/ha. Put shortly:
(§2)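 Plants were sown in standard soil and grown 8 days in a glasshouse (24/16° C. day/night, 14 hours light, 65% humidity), then sprayed post-emergence at 1000 or 250 g/ha from acetone/water (50:50) with 0.5% Tween 20. Damage was scored visually after 13 days (0 = none, 100 = total).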

Experiment [8] deals with Amaranthus retoflexus (AMARE). Described as above. The following applies: Amaranthus retroflexus, 312 h, evaluated after 13 days (100=total damage; 0=no damage), read-out: Percentage damage caused to weed species, AMARE; for pest or weed control at 1000 g/ha: post-emergence, 1,000 g/ha. Put shortly:
as §2

Experiment [9] deals with Setaria faberi (SETFA). The description is as above. The following applies: 312 h, evaluated after 13 days (100=total damage; 0=no damage), read-out: Percentage damage caused to weed species, SETFA; for pest or weed control at 1000 g/ha: post-emergence, 1,000 g/ha. Put shortly:
as §2

The test system of experiment [10] is Solanum nigrum (SOLNI). Described as above. The following applies: 312 h, evaluated after 13 days (100=total damage; 0=no damage), read-out: Percentage damage caused to weed species, SOLNI; for pest or weed control at 1000 g/ha: post-emergence, 1,000 g/ha. The method in brief:
as §2

In experiment [11] the test system is Ipomea hederaceae (IPOHE). The experiment is described as above. The following applies: Ipomoea hederacea, 312 h, evaluated after 13 days (100=total damage; 0=no damage), read-out: Percentage damage caused to weed species, IPOHE; for pest or weed control at 1000 g/ha: post-emergence, 1,000 g/ha. Put shortly: as §2
Experiment [12] concerns Alopecurus myosuroides (ALOMY). The description is as above. The following applies: 312 h, evaluated after 13 days (100=total damage; 0=no damage), read-out: Percentage damage caused to weed species, ALOMY; for pest or weed control at 1000 g/ha: post-emergence, 1,000 g/ha. Put shortly: as §2

`COC(=O)c1nc(C2CC2)nc(NC(C)c2cccc(C(F)(F)F)c2)c1Cl` (stereo not drawn) [Compound 4-179, 5-Chloro-2-cyclopropyl-6-methoxycarbonyl-4-[1-(3-trifluoro-methylphenyl)ethyl-amino]pyrimidine]: the pest or weed control at 250 g/ha in experiment [1] (pre-emergence, 250 g/ha) turned out to be 0%; in experiment [2] (pre-emergence, 250 g/ha), 50%; in the experiment on Setaria faberi (SETFA) [3] (pre-emergence, 250 g/ha), 0%; in the experiment with Solanum nigrum (SOLNI) [4] (pre-emergence, 250 g/ha), 0%; in experiment [5] (pre-emergence, 250 g/ha) it was 0%; in experiment [6] (pre-emergence, 250 g/ha), 0%. The pest or weed control at 250 g/ha in experiment [7] (post-emergence, 250 g/ha) is 40%; in experiment [8] (post-emergence, 250 g/ha), 70%; in the experiment with Setaria faberi (SETFA) [9] (post-emergence, 250 g/ha), 50%; with Solanum nigrum (SOLNI) [10] (post-emergence, 250 g/ha), 80%; in experiment [11] (post-emergence, 250 g/ha), 60%; in [12] (post-emergence, 250 g/ha), 30%.
Consider `COC(=O)c1nc(C2CC2)nc(NC(C)c2ccc(C)cc2C)c1Cl` (stereo not drawn) [Compound 4-183, 5-Chloro-2-cyclopropyl-4-[1-(2,4-dimethyl-phenyl)ethylamino]-6-methoxycarbonyl-pyrimidine], for which the pest or weed control at 1000 g/ha turned out to be 0% in experiment [1]; 30% in [2]; 0% in the experiment with Setaria faberi (SETFA) [3]; 0% in the experiment on Solanum nigrum (SOLNI) [4]; 20% in experiment [5]; 0% in [6]. Also, the pest or weed control at 1000 g/ha in experiment [7] was found to be 10%; in experiment [8], 70%; with Setaria faberi (SETFA) [9] it was 20%; with Solanum nigrum (SOLNI) [10], 40%; in experiment [11], 60%; in experiment [12], 10%.
Regarding `COC(=O)c1nc(C2CC2)nc(NC(C)(C)c2ccccc2)c1Cl` [Compound 4-189, 5-Chloro-2-cyclopropyl-6-methoxycarbonyl-4-(1-methyl-1-phenyl-ethylamino)-pyrimidine], the pest or weed control at 1000 g/ha in [1] came to 0%; in experiment [2], 60%; in the experiment on Setaria faberi (SETFA) [3], 0%; in the experiment with Solanum nigrum (SOLNI) [4], 50%; in experiment [5], 40%; in experiment [6] it was 20%. The pest or weed control at 1000 g/ha in [7] is 0%; in [8] it was 100%; in the experiment on Setaria faberi (SETFA) [9], 50%; with Solanum nigrum (SOLNI) [10], 90%; in [11], 100%; in experiment [12], 20%.
For `CCC(Nc1nc(C2CC2)nc(C(=O)OC)c1Cl)c1ccccc1` (stereo not drawn) [Compound 4-194, 5-Chloro-2-cyclopropyl-6-methoxycarbonyl-4-(1-phenylpropyl-amino)pyrimidine], the pest or weed control at 1000 g/ha in experiment [1] stood at 20%; in experiment [2] it was 100%; in the experiment with Setaria faberi (SETFA) [3], 10%; in the experiment with Solanum nigrum (SOLNI) [4], 60%; in experiment [5], 90%; in [6], 10%. In addition, the pest or weed control at 1000 g/ha in [7] is 60%; in experiment [8], 100%; in the experiment on Setaria faberi (SETFA) [9] it was 80%; in the experiment on Solanum nigrum (SOLNI) [10], 100%; in experiment [11], 100%; in experiment [12], 10%.
As for `C=CC(Nc1nc(C2CC2)nc(C(=O)OC)c1Cl)c1ccccc1` (stereo not drawn) [Compound 4-197, 5-Chloro-2-cyclopropyl-6-methoxycarbonyl-4-(1-phenylprop-2-en-1-yl-amino)-pyrimidine], the pest or weed control at 1000 g/ha in experiment [1] was 40%; in experiment [2], 90%; with Setaria faberi (SETFA) [3], 20%; in the experiment on Solanum nigrum (SOLNI) [4], 90%; in experiment [5], 100%; in [6], 20%. The pest or weed control at 1000 g/ha in [7] stood at 70%; in [8], 100%; in the experiment with Setaria faberi (SETFA) [9], 80%; in the experiment on Solanum nigrum (SOLNI) [10], 90%; in experiment [11], 100%; in experiment [12], 40%.
As for `C=CCC(Nc1nc(C2CC2)nc(C(=O)OC)c1Cl)c1ccc(Cl)cc1` (stereo not drawn) [Compound 4-198, 5-Chloro-4-[1-(4-chlorophenyl)but-3-en-1-yl-amino]-2-cyclopropyl-6-methoxycarbonyl-pyrimidine], the pest or weed control at 1000 g/ha in experiment [1] was determined as 0%; in experiment [2], 30%; with Setaria faberi (SETFA) [3], 0%; with Solanum nigrum (SOLNI) [4], 20%; in experiment [5], 70%; in experiment [6] it was 0%. Further, the pest or weed control at 1000 g/ha in [7] is 0%; in experiment [8] it was 40%; in the experiment with Setaria faberi (SETFA) [9], 40%; with Solanum nigrum (SOLNI) [10], 30%; in [11], 60%; in [12], 20%.
As for `C=CCC(Nc1nc(C2CC2)nc(C(=O)OC)c1Cl)c1ccccn1` (stereo not drawn) [Compound 4-199, 5-Chloro-2-cyclopropyl-6-methoxycarbonyl-4-[1-(pyrid-2-yl)-but-3-enylamino]-pyrimidine], the pest or weed control at 1000 g/ha worked out at 0% in [1]; 0% in [2]; 0% in the experiment with Setaria faberi (SETFA) [3]; 0% in the experiment with Solanum nigrum (SOLNI) [4]; 40% in experiment [5]; 0% in [6]. Further, the pest or weed control at 1000 g/ha was 0% in experiment [7]; 50% in experiment [8]; 0% with Setaria faberi (SETFA) [9]; 60% with Solanum nigrum (SOLNI) [10]; 80% in [11]; 0% in [12].
